Assay results published in PubChem BioAssay AID1549 (Sanford-Burnham Center for Chemical Genomics, 2009).
Calls of active or inactive are those of the source. No rule for the calls is given here.

target: Influenza A virus M2 proton channel (A/TW/4845/1999 H1N1); experiment: M2 proton channel binding, NMR based, influenza A virus H1N1 strain (AID 1549); settings: NMR binding screen, M2 protein

Row | SMILES | Kd
1 | CC1(C)CC[C@]2(C(=O)O)CC[C@]3(C)C(=CCC4[C@@]5(C)CC[C@@H](O)C(C)(C)C5CC[C@]43C)C2C1 (stereo partly drawn) | > 4 mM (inactive)
2 | O=c1c(-c2ccc(O)cc2)coc2cc(O)ccc12 | > 4 mM (inactive)
3 | NC(=O)c1ccc(N=Cc2ccc[nH]2)cc1 | > 4 mM (inactive)
4 | O=C1CSC(=O)N1CN1CCCC1 | > 4 mM (inactive)
5 | OCC1CNc2ccccc2O1 (stereo not drawn) | > 4 mM (inactive)
6 | CC(=O)c1c(O)c(C)c(O)c2c1OC1=CC(=O)C(C(C)=O)C(=O)C12C (stereo not drawn) | > 4 mM (inactive)
7 | CC(=O)N1N=C(N)SC1c1cccnc1 (stereo not drawn) | > 4 mM (inactive)
8 | CCc1nnsc1C(=O)Nc1nccs1 | > 4 mM (inactive)
9 | CCOC(=O)C1CCNCC1 | > 4 mM (inactive)
10 | CC(=O)/C=C\[C@@H]1[C@@]2(C)CCCC(C)(C)C2CC[C@@]1(C)O (stereo partly drawn) | > 4 mM (inactive)
11 | CC(=O)Nc1c(Cl)cnn(-c2ccccc2)c1=O | > 4 mM (inactive)
12 | Cc1cccc(CSc2nncc(=O)[nH]2)c1 | > 4 mM (inactive)
13 | Cc1nccn1CCC(=O)O | > 4 mM (inactive)
14 | O=C(O)CCCCC1SCC2NC(=O)NC21 (stereo not drawn) | > 4 mM (inactive)
15 | Cc1ccc(C(=O)Nn2cnnc2)c(Cl)c1 | > 4 mM (inactive)
16 | Cc1cc[n+](-c2nc([O-])sc2C=O)cc1 | > 4 mM (inactive)
17 | NC(=O)CCn1cnc2ccccc21 | > 4 mM (inactive)
18 | COc1cc([C@H]2Oc3cc([C@H]4Oc5cc(O)cc(O)c5C(=O)[C@@H]4O)ccc3O[C@@H]2CO)ccc1O | > 4 mM (inactive)
19 | CS/C(N)=C\C(C)=O | > 4 mM (inactive)
20 | O=c1sc2ccccc2n1CN1CCOCC1 | > 4 mM (inactive)
21 | Cc1nnc(SCc2cccs2)[nH]c1=O | > 4 mM (inactive)
22 | CC1CCN(S(=O)(=O)N(C)C)CC1 | > 4 mM (inactive)
23 | O=C(Cc1cccs1)N1CCOCC1 | > 4 mM (inactive)
24 | NC12CC3CC(C1)CC(O)(C3)C2 | > 4 mM (inactive)

Row | SMILES | Kd
25 | CCOC(=O)CN1C(=O)c2ccccc2C1=O | > 4 mM (inactive)
26 | O=c1[nH]cc(NCc2ccccc2)c(=O)[nH]1 | > 4 mM (inactive)
27 | O=C1N=C(N2CCOCC2)S/C1=C\c1cccnc1 | > 4 mM (inactive)
28 | Nc1ccc(S(=O)(=O)Nc2ccc(F)cc2F)cc1 | > 4 mM (inactive)
29 | O=C1NC(=S)N/C1=C\c1ccccc1 | > 4 mM (inactive)
30 | c1ccc(Cc2nn3c(-c4ccncc4)nnc3s2)cc1 | > 4 mM (inactive)
31 | O=C1CCC(=O)N1c1nc2ccccc2s1 | > 4 mM (inactive)
32 | CC(=O)Nc1nnc(-c2ccccc2)o1 | > 4 mM (inactive)
33 | CC(=O)c1ccc(Cc2cnc(N)s2)cc1 | > 4 mM (inactive)
34 | O=c1nc(N2CCOCC2)nc2n1CCO2 | > 4 mM (inactive)
35 | COCc1cc(=O)oc2cc(O)c(Cl)cc12 | > 4 mM (inactive)
36 | O=C(O)c1sccc1-n1cccc1 | > 4 mM (inactive)
37 | CC1(C)C(=O)C=C[C@@]2(C)C1C=C[C@]1(C)C2CC[C@@]2(C)[C@H](c3ccoc3)OC(=O)C3OC321 (stereo partly drawn) | > 4 mM (inactive)
38 | CC1(C)C(=O)N(O)C(C)(C)C(=O)N1O | > 4 mM (inactive)
39 | CC(=O)OC[C@H]1O[C@@H](Oc2cc(OC(C)=O)c3c(=O)cc(-c4ccc(OC(C)=O)cc4)oc3c2)[C@H](OC(C)=O)[C@@H](OC(C)=O)[C@@H]1OC(C)=O | > 4 mM (inactive)
40 | Cc1cc(=O)c2c(O)c(C)c(O)cc2o1 | > 4 mM (inactive)
41 | CC(=O)Nc1c(C)n(C)n(-c2ccccc2)c1=O | > 4 mM (inactive)
42 | O=S1(=O)C=C(Nc2ccccc2)CC1 | > 4 mM (inactive)
43 | OC[C@@H]1CCCN2CCCC[C@H]12 | > 4 mM (inactive)
44 | COC(=O)c1[nH]c2ccccc2c1C(=O)OC | > 4 mM (inactive)
45 | CCC(=O)Nc1ccccc1NC(C)=O | > 4 mM (inactive)
46 | CC12CN3CC(C)(CN(C1)C3c1cccs1)C2O (stereo not drawn) | > 4 mM (inactive)
47 | NC(=O)CCn1ncc2ccccc21 | > 4 mM (inactive)
48 | COCC(=O)Nc1ccc(C)c(Cl)c1 | > 4 mM (inactive)

Row | SMILES | Kd
49 | Cc1nc2sc3c(c2c(=N)n1N)CC(C)(C)OC3 | > 4 mM (inactive)
50 | O=C(c1cc(Cl)cc(Cl)c1)N1CCOCC1 | > 4 mM (inactive)
51 | O=c1ccc2ccc(O)cc2o1 | > 4 mM (inactive)
52 | OCC1CCCCCN1 (stereo not drawn) | > 4 mM (inactive)
53 | NC(N)=NCCCCN=C(N)N | > 4 mM (inactive)
54 | CC1(C)C2CC[C@]3(C)C(C(=O)C=C4[C@@H]5C[C@@](C)(C(=O)O)CC[C@]5(C)CC[C@]43C)[C@@]2(C)CC[C@@H]1O (stereo partly drawn) | > 4 mM (inactive)
55 | CNC(=O)c1ccccc1N | > 4 mM (inactive)
56 | COC(=O)C(O)[C@@H]1C2(C)C(=O)[C@@H](CC3=C4CC(=O)O[C@@H](c5ccoc5)[C@]4(C)CCC32)[C@H](OC(C)=O)C1(C)C (stereo partly drawn) | > 4 mM (inactive)
57 | CN1CCN(C2CCSC2)CC1 (stereo not drawn) | > 4 mM (inactive)
58 | O=c1n(-c2cccc(Cl)c2)c(=O)n2n1CCC2 | > 4 mM (inactive)
59 | O=C(O)C1Cc2c([nH]c3ccccc23)CN1 (stereo not drawn) | > 4 mM (inactive)
60 | CN1C2CCC1CC(OC(=O)C(CO)c1ccccc1)C2 (stereo not drawn) | > 4 mM (inactive)
61 | NC(=O)/C=C/C(=O)Nc1ccccc1 | > 4 mM (inactive)
62 | CNC(=O)CC1Sc2ccccc2NC1=O (stereo not drawn) | > 4 mM (inactive)
63 | NCCc1c[nH]c2ccccc12 | > 4 mM (inactive)
64 | CC(=O)O[C@@H]1CC2C(C)(C)[C@H](O)CC[C@]2(C)C2CC[C@@]3(C)[C@H](c4ccoc4)OC(=O)C4OC43[C@@]21C (stereo partly drawn) | > 4 mM (inactive)
65 | NC(CSCSCC(N)C(=O)O)C(=O)O (stereo not drawn) | > 4 mM (inactive)
66 | O=C1CCC(C(=O)NCc2cccnc2)N1 (stereo not drawn) | > 4 mM (inactive)
67 | NC1=NCc2ccccc21 | > 4 mM (inactive)
68 | N#Cc1cc(-c2ccccc2)oc1N | > 4 mM (inactive)
69 | CN(C)c1nc(N)nc(Cn2ccnc2)n1 | > 4 mM (inactive)
70 | CCN(CC)c1nc2n(c(=O)n1)CCO2 | > 4 mM (inactive)
71 | CC1(C)C(=O)C=C[C@@]2(C)C1=C(O)C(=O)[C@]1(C)C2CC[C@@]2(C)[C@H](c3ccoc3)C[C@H]3O[C@]321 (stereo partly drawn) | > 4 mM (inactive)
72 | O=S(=O)(c1cccc2cccnc12)N1CCOCC1 | > 4 mM (inactive)

Row | SMILES | Kd
73 | N#Cc1cnn2c(C(F)(F)F)cc(C(F)(F)F)nc12 | > 4 mM (inactive)
74 | COCC(=O)Nc1c(C(N)=O)oc2ccccc12 | > 4 mM (inactive)
75 | CSc1nnnn1-c1cccc(O)c1 | > 4 mM (inactive)
76 | COc1cc2c(cc1OC)C1=C(C#N)CCC(=O)N1CC2 | > 4 mM (inactive)
77 | O=NN1C(=O)c2ccccc2C1=O | > 4 mM (inactive)
78 | CCOC(=O)c1ccc(F)cc1F | > 4 mM (inactive)
79 | CN(C)CCCN1CNC(=S)NC1 | > 4 mM (inactive)
80 | C[C@H]1CCCC(=O)CCC/C=C/c2cc(O)cc(O)c2C(=O)O1 | > 4 mM (inactive)
81 | O=S(=O)(N1CCCCC1)n1nnc2ccccc21 | > 4 mM (inactive)
82 | COc1ccc(-c2coc3cc(OC(C)=O)cc(OC(C)=O)c3c2=O)cc1 | > 4 mM (inactive)
83 | O=C(c1cc2ccccc2o1)c1nc2c(n1O)CCCCC2 | > 4 mM (inactive)
84 | O=C(CCc1ccc(O)cc1)c1c(O)cc(O)cc1O[C@@H]1O[C@H](CO)[C@@H](O)[C@H](O)[C@H]1O | > 4 mM (inactive)
85 | O=C(NCN1CCOCC1)c1cnccn1 | > 4 mM (inactive)
86 | COc1cc2c(cc1OC)-c1nnnn1C(C)(C)C2 | > 4 mM (inactive)
87 | O=C(NCc1ccco1)c1cccc(F)c1 | > 4 mM (inactive)
88 | CN(C)S(=O)(=O)c1ccccc1C#N | > 4 mM (inactive)
89 | COC(=O)c1cncn1C | > 4 mM (inactive)
90 | O=C(NCc1cccc(Cl)c1)c1ccco1 | > 4 mM (inactive)
91 | Cc1ccc(-c2nn3c(C)nnc3s2)cc1N | > 4 mM (inactive)
92 | O=C(c1ccccc1)N1CCOCC1 | > 4 mM (inactive)
93 | NCC(=O)c1ccccc1 | > 4 mM (inactive)
94 | CC(O)c1ccc(C(C)O)cc1 (stereo not drawn) | > 4 mM (inactive)
95 | CNC(=O)C1=NCCCc2cc(OC)c(OC)cc21 | > 4 mM (inactive)
96 | COc1ccc2c(=O)c(CC(=O)O)coc2c1 | > 4 mM (inactive)

Row | SMILES | Kd
97 | Cc1cc(OC(=O)c2ccco2)c([N+](=O)[O-])c(=O)[nH]1 | > 4 mM (inactive)
98 | CC(=O)c1c(O)cc(O)cc1O | > 4 mM (inactive)
99 | C=C1[C@H]2CC[C@@]3(C)[C@H](c4ccoc4)OC(=O)C[C@]13O[C@H]1C[C@H](O)C(C)(C)[C@H](CC(=O)OC)[C@]12C | > 4 mM (inactive)
100 | Cn1ccc(C(=O)NC(=S)NN2CCOCC2)n1 | > 4 mM (inactive)
101 | CN1C(=O)Cc2cc(S(N)(=O)=O)ccc21 | > 4 mM (inactive)
102 | Cc1nnc(NCc2ccc3c(c2)OCO3)[nH]c1=O | > 4 mM (inactive)
103 | COc1cc(S(=O)(=O)Nc2cccnc2)ccc1F | > 4 mM (inactive)
104 | Cc1nc(N2CCOCC2)[nH]c(=O)c1C | > 4 mM (inactive)
105 | COC(=O)C[C@H]1C(C)(C)C(=O)[C@@H]2CC3=C4CC(=O)O[C@@H](c5ccoc5)[C@]4(C)CCC3C1(C)C2=O (stereo partly drawn) | > 4 mM (inactive)
106 | COc1cc(C(=S)N2CCCC2)cc(Cl)c1O | > 4 mM (inactive)
107 | O=C(Nc1ccc(O)cc1)N1CCOCC1 | > 4 mM (inactive)
108 | COc1cc(OC)c2c(c1Cl)OC1(C2=O)C(O)=CC(=O)CC1C (stereo not drawn) | > 4 mM (inactive)
109 | Nc1ccc(CCC(=O)O)cc1 | > 4 mM (inactive)
110 | CC(=O)Nc1nnc(-c2ccccn2)o1 | > 4 mM (inactive)
111 | Cc1nn(C)c(C)c1C(=O)O | > 4 mM (inactive)
112 | OCCNc1nc2ccc(Cl)cc2[nH]1 | > 4 mM (inactive)
113 | COc1cc2c(cc1OC)C(C)NCC2 (stereo not drawn) | > 4 mM (inactive)
114 | O=c1c2ccccc2oc2ccccc12 | > 4 mM (inactive)
115 | COc1ccc(C(=O)/C=C2\NC(=S)NC2=O)cc1 | > 4 mM (inactive)
116 | Cc1c(C(=O)Nn2cnnc2)oc2ccccc12 | > 4 mM (inactive)
117 | COc1ccc(O)c(-c2cn[nH]c2-c2cccs2)c1 | > 4 mM (inactive)
118 | Cc1nnc(SCC(=O)NCc2ccccc2)[nH]c1=O | > 4 mM (inactive)
